Test results taken from PubChem BioAssay (NCI).
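How tested: cells in 96-well plates exposed to compound for 48 hours at five concentrations. TGI: total growth inhibition.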

How the values were obtained:
Test in all cases: growth of human tumour cells (NCI), 48 h
UACC-62 melanoma = test system: UACC-62 melanoma
HOP-18 NSCLC = test system: HOP-18 NSCLC
NCI-H460 lung = test system: NCI-H460 lung
OVCAR-8 ovarian = test system: OVCAR-8 ovarian
RXF-631 renal = test system: RXF-631 renal
OVCAR-4 ovarian = test system: OVCAR-4 ovarian
SF-539 CNS = test system: SF-539 CNS
DMS 273 small cell lung = test system: DMS 273 small cell lung
SF-295 CNS = test system: SF-295 CNS
NCI-H522 lung = test system: NCI-H522 lung
SK-MEL-2 melanoma = test system: SK-MEL-2 melanoma
DLD-1 colon = test system: DLD-1 colon
SN12C renal = test system: SN12C renal
CCRF-CEM leukemia = test system: CCRF-CEM leukemia
SK-MEL-5 melanoma = test system: SK-MEL-5 melanoma
OVCAR-5 ovarian = test system: OVCAR-5 ovarian
A549 NSCLC = test system: A549 NSCLC
LXFL 529 NSCLC = test system: LXFL 529 NSCLC
SW-620 colon = test system: SW-620 colon
XF 498 CNS = test system: XF 498 CNS
ACHN renal = test system: ACHN renal
A498 renal = test system: A498 renal
MOLT-4 leukemia = test system: MOLT-4 leukemia
KM20L2 colon = test system: KM20L2 colon
M14 melanoma = test system: M14 melanoma
HCT-15 colon = test system: HCT-15 colon
786-0 renal = test system: 786-0 renal
CAKI-1 renal = test system: CAKI-1 renal
RXF 393 renal = test system: RXF 393 renal
OVCAR-3 ovarian = test system: OVCAR-3 ovarian
TK-10 renal = test system: TK-10 renal
UO-31 renal = test system: UO-31 renal
LOX IMVI melanoma = test system: LOX IMVI melanoma
MALME-3M melanoma = test system: MALME-3M melanoma
RPMI-8226 leukemia = test system: RPMI-8226 leukemia
U251 CNS = test system: U251 CNS
COLO 205 colon = test system: COLO 205 colon
UACC-257 melanoma = test system: UACC-257 melanoma
IGROV1 ovarian = test system: IGROV1 ovarian
SK-MEL-28 melanoma = test system: SK-MEL-28 melanoma
KM12 colon = test system: KM12 colon
NCI-H23 lung = test system: NCI-H23 lung
HL-60(TB) leukemia = test system: HL-60(TB) leukemia
K-562 leukemia = test system: K-562 leukemia
EKVX NSCLC = test system: EKVX NSCLC
SNB-19 CNS = test system: SNB-19 CNS
HCC-2998 colon = test system: HCC-2998 colon
HOP-92 NSCLC = test system: HOP-92 NSCLC
SNB-75 CNS = test system: SNB-75 CNS
SF-268 CNS = test system: SF-268 CNS
SK-OV-3 ovarian = test system: SK-OV-3 ovarian
HT29 colon = test system: HT29 colon
M19-MEL melanoma = test system: M19-MEL melanoma

Measured: TGI

COc1ccc(C(=O)Nc2ccc(S(=O)(=O)NCC(=O)O)cc2)cc1
> 100 µM: all assays above
